Test results as given in PubChem BioAssay AID248 (DTP/NCI, 2004).
Where “and” joins values, the source holds several entries; their conditions need not be identical. Equal values may be shown once. Toxic doses and inconclusive results are not listed. Cut-off read from the data, not from the text of the source: active = T/C of 150% or more; inactive = T/C below 125%.

System: L1210 leukemia ip in BDF1 mice, survival T/C
Assay: NCI In Vivo Anticancer Drug Screen. Data for tumor model L1210 Leukemia (intraperitoneal) in B6D2F1 (BDF1) mice
Details: endpoint: mean survival time, higher = longer survival
Procedure, shortened: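 Ratio derived from survival: compound-dosed mice over vehicle-dosed mice, all bearing a transplantable tumor.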

[1] = dose: 100.0 mg/kg/injection, schedule: Q01DX001 (ip), vehicle: acetone
[2] = dose: 200.0 mg/kg/injection, schedule: Q01DX001 (ip), vehicle: acetone
[3] = dose: 400.0 mg/kg/injection, schedule: Q01DX001 (ip), vehicle: acetone
[4] = dose: 100.0 mg/kg/injection, schedule: Q04DX003 (ip), vehicle: Klucel (hydroxypropylcellulose) (HPC)
[5] = dose: 200.0 mg/kg/injection, schedule: Q04DX003 (ip), vehicle: Klucel (hydroxypropylcellulose) (HPC)
[6] = dose: 400.0 mg/kg/injection, schedule: Q04DX003 (ip), vehicle: Klucel (hydroxypropylcellulose) (HPC)
[7] = dose: 100.0 mg/kg/injection, schedule: Q04DX003 (ip), vehicle: saline
[8] = dose: 200.0 mg/kg/injection, schedule: Q04DX003 (ip), vehicle: saline
[9] = dose: 100.0 mg/kg/injection, schedule: Q01DX001 (ip), vehicle: carboxymethylcellulose (CMC)
[10] = dose: 200.0 mg/kg/injection, schedule: Q01DX001 (ip), vehicle: carboxymethylcellulose (CMC)
[11] = dose: 400.0 mg/kg/injection, schedule: Q04DX003 (ip), vehicle: saline
[12] = dose: 100.0 mg/kg/injection, schedule: Q01DX009 (ip), vehicle: Klucel (hydroxypropylcellulose) (HPC)
[13] = dose: 200.0 mg/kg/injection, schedule: Q01DX009 (ip), vehicle: Klucel (hydroxypropylcellulose) (HPC)
[14] = dose: 400.0 mg/kg/injection, schedule: Q01DX009 (ip), vehicle: Klucel (hydroxypropylcellulose) (HPC)
[15] = dose: 100.0 mg/kg/injection, schedule: Q01DX001 (ip), vehicle: saline
[16] = dose: 200.0 mg/kg/injection, schedule: Q01DX001 (ip), vehicle: saline
[17] = dose: 400.0 mg/kg/injection, schedule: Q01DX001 (ip), vehicle: saline

Measured: T/C

O=C1NC(c2ccccc2)(c2ccccc2)CN1CCO
inactive: dose: 100.0 mg/kg/injection, schedule: Q01DX001 (ip), vehicle: saline with Tween-80 95 % of control | dose: 200.0 mg/kg/injection, schedule: Q01DX001 (ip), vehicle: saline with Tween-80 95 % of control | dose: 400.0 mg/kg/injection, schedule: Q01DX001 (ip), vehicle: saline with Tween-80 93 % of control

O=[N+]([O-])c1ccc2scnc2c1
inactive: [1] 98 % of control | dose: 100.0 mg/kg/injection, schedule: Q04DX003 (ip), vehicle: acetone 107 % of control | [2] 92 % of control | dose: 200.0 mg/kg/injection, schedule: Q04DX003 (ip), vehicle: acetone 89 % of control | [3] 95 % of control | dose: 400.0 mg/kg/injection, schedule: Q04DX003 (ip), vehicle: acetone 96 % of control

O=C(/C=C/c1ccccc1)c1ccccn1
inactive: dose: 100.0 mg/kg/injection, schedule: Q04DX003 (ip), vehicle: saline with Tween-80 100 % of control | dose: 200.0 mg/kg/injection, schedule: Q04DX003 (ip), vehicle: saline with Tween-80 104 % of control | dose: 400.0 mg/kg/injection, schedule: Q04DX003 (ip), vehicle: saline with Tween-80 100 % of control

O=S(=O)(N/C(=C(\NS(=O)(=O)c1ccccc1)c1ccccc1)c1ccccc1)c1ccccc1
inactive: [4] 97 % of control | [5] 95 % of control | [6] 92 % of control

O=C(N1CCOCC1)C1(c2ccccc2)CCNCC1
inactive: [7] 98 % of control | [8] 93 % of control

O=[N+]([O-])c1cc(Br)c2c(c1)CCN2
inactive: dose: 12.5 mg/kg/injection, schedule: Q01DX005 (ip), vehicle: other 100 % of control | dose: 25.0 mg/kg/injection, schedule: Q01DX005 (ip), vehicle: other 102 % of control | dose: 50.0 mg/kg/injection, schedule: Q01DX005 (ip), vehicle: other 100 % of control | dose: 100.0 mg/kg/injection, schedule: Q01DX005 (ip), vehicle: other 105 % of control | dose: 200.0 mg/kg/injection, schedule: Q01DX005 (ip), vehicle: other 102 % of control

COC1C=COC2(C)Oc3c(C)c(O)c4c(c3C2=O)/C(=N/C2CCC(O)OC2C)C=C(NC(=O)/C(C)=C\C(=O)C2CC2C(O)C(C)C(O)C(C)C(OC(C)=O)C1C)C4=O (stereo not given)
inactive: dose: 50.0 mg/kg/injection, schedule: Q04DX002 (ip), vehicle: saline with Tween-80 95 % of control | dose: 100.0 mg/kg/injection, schedule: Q04DX002 (ip), vehicle: saline with Tween-80 95 % of control

CCS(=O)(=O)c1ccc(NC(=O)Oc2cc(C)ccc2C(C)C)cc1
inactive: [9] 91 % of control | [10] 96 % of control | dose: 400.0 mg/kg/injection, schedule: Q01DX001 (ip), vehicle: carboxymethylcellulose (CMC) 94 % of control

CCOc1cc(/C=N\Nc2nncn2N)c(C)cc1N(CCCl)CCCl
inactive: dose: 1.3 mg/kg/injection, schedule: Q01DX015 (ip), vehicle: carboxymethylcellulose (CMC) 107 % of control | dose: 1.5 mg/kg/injection, schedule: Q01DX015 (ip), vehicle: carboxymethylcellulose (CMC) 120 % of control | dose: 2.6 mg/kg/injection, schedule: Q01DX015 (ip), vehicle: carboxymethylcellulose (CMC) 100 % of control | dose: 15.0 mg/kg/injection, schedule: Q01DX015 (ip), vehicle: carboxymethylcellulose (CMC) 102 % of control and 109 % of control | dose: 22.0 mg/kg/injection, schedule: Q01DX001 (ip), vehicle: carboxymethylcellulose (CMC) 118 % of control | dose: 50.0 mg/kg/injection, schedule: Q01DX001 (ip), vehicle: carboxymethylcellulose (CMC) 110 % of control | [9] 123 % of control | [10] 89 % of control

CC(=O)c1ccc(F)c(C)c1
inactive: dose: 100.0 mg/kg/injection, schedule: Q04DX003 (ip), vehicle: saline sonified 93 % of control | dose: 200.0 mg/kg/injection, schedule: Q04DX003 (ip), vehicle: saline sonified 97 % of control | dose: 400.0 mg/kg/injection, schedule: Q04DX003 (ip), vehicle: saline sonified 93 % of control

CN(C)CCSc1ncnc2nc[nH]c12
inactive: [7] 94 % of control | [8] 99 % of control | [11] 89 % of control

CCC1NC(C)(C)CC1=C(C)C (stereo not given)
inactive: dose: 3.13 mg/kg/injection, schedule: Q01DX009 (ip), vehicle: saline 101 % of control | dose: 6.25 mg/kg/injection, schedule: Q01DX009 (ip), vehicle: saline 96 % of control | dose: 12.5 mg/kg/injection, schedule: Q01DX009 (ip), vehicle: saline 96 % of control

CCCCCCCCCCCCOc1ccccc1C(=O)O
inactive: dose: 100.0 mg/kg/injection, schedule: Q01DX009 (ip), vehicle: saline sonified 98 % of control | [4] 97 % of control | dose: 200.0 mg/kg/injection, schedule: Q01DX009 (ip), vehicle: saline sonified 116 % of control | [5] 89 % of control | dose: 400.0 mg/kg/injection, schedule: Q01DX009 (ip), vehicle: saline sonified 108 % of control | [6] 99 % of control

CCCCCCCCOC(CN)C(Cl)(Cl)Cl (stereo not given)
inactive: dose: 6.25 mg/kg/injection, schedule: Q01DX009 (ip), vehicle: saline with Tween-80 103 % of control | dose: 6.25 mg/kg/injection, schedule: Q04DX003 (ip), vehicle: saline with Tween-80 91 % of control | dose: 12.5 mg/kg/injection, schedule: Q01DX009 (ip), vehicle: saline with Tween-80 100 % of control | dose: 12.5 mg/kg/injection, schedule: Q04DX003 (ip), vehicle: saline with Tween-80 94 % of control | dose: 25.0 mg/kg/injection, schedule: Q01DX009 (ip), vehicle: saline with Tween-80 100 % of control | dose: 25.0 mg/kg/injection, schedule: Q04DX003 (ip), vehicle: saline with Tween-80 94 % of control

COc1ccc(CN=C(N)CSS(=O)(=O)O)cc1
inactive: dose: 12.5 mg/kg/injection, schedule: Q04DX002 (ip), vehicle: Klucel (hydroxypropylcellulose) (HPC) 97 % of control | dose: 25.0 mg/kg/injection, schedule: Q04DX002 (ip), vehicle: Klucel (hydroxypropylcellulose) (HPC) 97 % of control

CCOc1ccccc1NC(=O)Nc1ccccc1C(F)(F)F
inactive: [12] 94 % of control | [13] 96 % of control | [14] 91 % of control

c1ccc(C[As+](c2ccccc2)(c2ccccc2)c2ccccc2)cc1
inactive: dose: 5.0 mg/kg/injection, schedule: Q01DX001 (ip), vehicle: saline 101 % of control | dose: 6.25 mg/kg/injection, schedule: Q04DX002 (ip), vehicle: saline with Tween-80 97 % of control | dose: 10.0 mg/kg/injection, schedule: Q01DX001 (ip), vehicle: saline 90 % of control | dose: 12.5 mg/kg/injection, schedule: Q04DX002 (ip), vehicle: saline with Tween-80 86 % of control | dose: 20.0 mg/kg/injection, schedule: Q01DX001 (ip), vehicle: saline 93 % of control | dose: 25.0 mg/kg/injection, schedule: Q04DX002 (ip), vehicle: saline with Tween-80 101 % of control | dose: 40.0 mg/kg/injection, schedule: Q01DX001 (ip), vehicle: saline 109 % of control

CCCCCC(=O)/C=C/CC(CCCCCCC#N)C(CC(OC)OC)[N+](=O)[O-] (stereo not given)
inactive: [4] 100 % of control | [5] 96 % of control | [6] 96 % of control

OCC(I)CO
inactive: [15] 106 % of control

CCC(C)N=[N+]([O-])CC (stereo not given)
inactive: [1] 101 % of control | [2] 112 % of control | [3] 91 % of control

C/C=C/c1ccc(OCC)c(OC)c1
inactive: [7] 97 % of control | [8] 98 % of control

COc1ccc(C(=O)NC(=S)Nc2ccc(I)cc2)cc1
inactive: [12] 98 % of control | [4] 89 % of control | [13] 98 % of control | [5] 89 % of control | [14] 91 % of control | [6] 94 % of control

CC(=O)C1OC1(C)C (stereo not given)
inactive: [15] 108 % of control | dose: 100.0 mg/kg/injection, schedule: Q01DX009 (ip), vehicle: saline 105 % of control | [7] 108 % of control | [16] 103 % of control | dose: 200.0 mg/kg/injection, schedule: Q01DX009 (ip), vehicle: saline 104 % of control | [8] 102 % of control | [17] 104 % of control | dose: 400.0 mg/kg/injection, schedule: Q01DX009 (ip), vehicle: saline 104 % of control | [11] 102 % of control

O=C(O)C1CCC(=O)C2CCCCC12 (stereo not given)
inactive: [15] 97 % of control | [16] 94 % of control | [17] 95 % of control
